Values of other authors as cited in patent publication US7615672B2, “Process for the preparation of n-heneicosane” (Defence Research & Development Organisation, priority 2005, dated 2009).

Test system: Aedes aegypti
Conditions: oviposition attractant pheromone

Question: For `CCCCCCCCCCCCCCCCCCCCC` [n-heneicosane], which “concentration at which n-heneicosane attracts Aedes aegypti mosquitoes” value is on record?
Answer: less than 100 ppm
